Experiment: In vivo PK in CD-1 mice (IV and PO)
Set-up: species or system mouse
Conditions: male CD-1 mice
Protocol: • IV dosing vehicles: 3% DMA/45% PEG300/12% ethanol/40% sterile water • PO dosing vehicle: 2% Tween 80 in 0.9% saline • Dose formulation: The dose formulation was prepared by the step-wise addition (in the order listed) of the individual components of the vehicle to a weighed quantity of test compound in a volume that yielded the desired final concentration. Each formulation was prepared by mixing a weighed quantity of test compound with the appropriate volume of vehicle. • Dosing Solution Analysis: The dosing solutions were analyzed by LC-MS/MS. The dosing solutions were diluted into mouse blood and analyzed in triplicate. All concentrations are expressed as mg/mL of the free base. The nominal dosing level was used in all calculations for Group 1.
• Species and strain: mouse; male CD-1 • Mean weight: 0.034 kg for the IV arm; 0.027 kg for PO arm • Number: 6 animals total (three animals per dosing group (Group 1 (IV) and Group 2 (PO)), per study) • COMPLIANCE: This non-clinical study followed established practices and standard operating procedures of Absorption Systems as well as the study protocol. This study was exploratory in nature and was not conducted in accordance with the principles set forth in the United States Food and Drug Administration (FDA) Good Laboratory Practice (GLP) Regulations, 21 Code of Federal regulations (CFR) Part 58. The report is archived in a validated scientific data management system. Electronic signatures comply with the regulation 21 CFR Part 11.
Blood was collected from mice at pre-dose and at 5, 15 and 30 min, and 1, 2, 4, 8, 24 and 48 h post-dose. Hemolyzed blood samples were extracted by protein precipitation using acetonitrile. Following protein extraction with acetonitrile, compound levels were measured by LC-MS/MS. Pharmacokinetic parameters were calculated from the time course of the blood concentrations. Pharmacokinetic parameters were determined with Phoenix WinNonlin (v8.0) software using a non-compartmental model. The maximum blood concentrations (CO) after IV dosing were estimated by extrapolation of the first two time points back to t=0. The maximum blood concentration (Cmax) and the time to reach maximum blood concentration (tmax) after PO dosing were observed from the data. The area under the time concentration curve (AUC) was calculated using the linear trapezoidal rule with calculation to the last quantifiable data point, and with extrapolation to infinity if applicable. Blood half-life (t ½) was calculated from 0.693/slope of the terminal elimination phase. Mean residence time, MRT, was calculated by dividing the area under the moment curve (AUMC) by the AUC. Clearance (CL) was calculated from dose/AUC. Steady-state volume of distribution (Vss) was calculated from CL*MRT. Bioavailability was determined by dividing the individual dose normalized PO AUC∞ values by the average dose-normalized IV AUC∞ value. Any samples below the limit of quantitation (1.00 ng/mL) were treated as zero for pharmacokinetic data analysis.

With `Cc1cc(C(=O)O)nc(N2CCC(COc3ccccc3C(F)(F)F)C2)n1` (racemic) [Compound (±)-44, (±)-6-Methyl-2-(3-((2-(trifluoromethyl)phenoxy)methyl)pyrrolidin-1-yl)pyrimidine-4-carboxylic Acid] the CL (IV 2 mg/kg) was 0.832 mL/min/kg, the AUCINF (PO 5 mg/kg) was 52439 ng·h/mL and the t1/2 (PO 5 mg/kg) was 9.9 h. It also gave an AUC(0-inf) (mouse, whole blood, IV 2 mg/kg) of 40300 ng·h/mL, an AUC(0-t) (mouse, whole blood, IV 2 mg/kg) of 39500 ng·h/mL and a clearance (mouse, whole blood, IV 2 mg/kg) of 0.832 mL/min/kg. For the same compound, the half-life (mouse, whole blood, IV 2 mg/kg) was 8.6 h, the C0 (mouse, whole blood, IV 2 mg/kg, blood) was 9130 ng/mL and the Vd (mouse, whole blood, IV 2 mg/kg, read-out: Vss) was 0.518 L/kg. For the same compound, the bioavailability (mouse, whole blood, PO 5 mg/kg vs IV 2 mg/kg) was 52%, the AUC(0-inf) (mouse, whole blood, PO 5 mg/kg) was 52400 ng·h/mL and the AUC(0-t) (mouse, whole blood, PO 5 mg/kg) was 50400 ng·h/mL. It also gave a Tmax (mouse, whole blood, PO 5 mg/kg) of 0.83 h, a half-life (mouse, whole blood, PO 5 mg/kg) of 9.9 h and a Cmax (mouse, whole blood, PO 5 mg/kg, blood) of 3030 ng/mL.

Reference: patent publication US20230348415A1, “BISPECIFIC ANTAGONISTS OF RETINOL-BINDING PROTEIN 4 THAT STABILIZE TRANSTHYRETIN TETRAMERS, THEIR PREPARATION, AND USE IN THE TREATMENT OF COMMON AGE-RELATED COMORBIDITIES” (The Trustees of Columbia University in the City of New York, priority 2020, published 2023)
